Earlier results on one compound are cited in US20040148013A1, “Stent-based delivery statins to prevent restenosis” (priority 2003, published 2004).

The test system of one data set is neointimal accumulation. The conditions noted are these: in vivo, rat carotid artery injury model.

The structures appear in SMILES notation.

Turning to `CC(=O)O[C@H]1C(=O)[C@@]2(C)[C@H]([C@H](OC(=O)c3ccccc3)[C@]3(O)C[C@H](OC(=O)[C@H](O)[C@@H](NC(=O)c4ccccc4)c4ccccc4)C(C)=C1C3(C)C)[C@]1(OC(C)=O)CO[C@@H]1C[C@@H]2O` [Taxol®, Paclitaxel], in the data set with neointimal accumulation, the neointimal accumulation entry is given as “inhibited neointimal accumulation”. Moreover, the induction of apoptosis result in the data set on SMC (biologically relevant concentrations) is “does not appear to induce apoptosis”. In addition, in the data set with SMC (in vitro), the SMC proliferation result is given as “inhibited” and the “platelet-derived growth factor-stimulated SMC migration” value was “inhibited”.
